How the values were obtained:
Tubulin = test: Inhibition of tubulin polymerization (unknown origin) measured after 1 min by fluorescence assay; format: protein-complex assay, Homo sapiens
U-937 = test: Antiproliferative activity against human U-937 cells assessed as cell growth inhibition after 72 hrs by CCK8 assay; format: functional, cell-based; conditions: U-937, 72 h
A549 = test: Antiproliferative activity against human A549 cells assessed as cell growth inhibition after 72 hrs by SRB assay; format: functional, cell-based; conditions: A549, 72 h
MGC-803 = test: Antiproliferative activity against human MGC-803 cells assessed as cell growth inhibition after 72 hrs by SRB assay; format: functional, cell-based; conditions: MGC-803, 72 h
HepG2 = test: Antiproliferative activity against human HepG2 cells assessed as cell growth inhibition after 72 hrs by SRB assay; format: functional, cell-based; conditions: HepG2, 72 h
MCF7 = test: Antiproliferative activity against human MCF7 cells assessed as cell growth inhibition after 72 hrs by SRB assay; format: functional, cell-based; conditions: MCF7, 72 h
HeLa = test: Antiproliferative activity against human HeLa cells assessed as cell growth inhibition after 72 hrs by SRB assay; format: functional, cell-based
Histone deacetylase 1 = Histone deacetylase 1 (Homo sapiens, UniProt Q13547); test: Inhibition of HDAC1 (unknown origin)
Histone deacetylase 1, sequence (Q13547 whole entry): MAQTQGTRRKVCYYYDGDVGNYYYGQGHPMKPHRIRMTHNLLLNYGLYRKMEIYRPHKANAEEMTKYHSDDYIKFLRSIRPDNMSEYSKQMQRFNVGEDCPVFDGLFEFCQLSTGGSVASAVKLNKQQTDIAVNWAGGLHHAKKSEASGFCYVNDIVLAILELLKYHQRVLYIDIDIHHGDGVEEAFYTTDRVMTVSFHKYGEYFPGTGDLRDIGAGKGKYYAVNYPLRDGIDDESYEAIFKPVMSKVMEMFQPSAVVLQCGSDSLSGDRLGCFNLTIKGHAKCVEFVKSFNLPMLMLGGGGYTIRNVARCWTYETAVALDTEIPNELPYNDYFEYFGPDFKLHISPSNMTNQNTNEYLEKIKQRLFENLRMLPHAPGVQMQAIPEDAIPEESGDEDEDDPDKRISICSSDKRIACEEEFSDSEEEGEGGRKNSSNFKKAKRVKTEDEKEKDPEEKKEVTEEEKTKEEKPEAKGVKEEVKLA

Histone deacetylase 2 = Histone deacetylase 2 (Homo sapiens, UniProt Q92769); test: Inhibition of HDAC2 (unknown origin)
Histone deacetylase 2, sequence (Q92769 whole entry): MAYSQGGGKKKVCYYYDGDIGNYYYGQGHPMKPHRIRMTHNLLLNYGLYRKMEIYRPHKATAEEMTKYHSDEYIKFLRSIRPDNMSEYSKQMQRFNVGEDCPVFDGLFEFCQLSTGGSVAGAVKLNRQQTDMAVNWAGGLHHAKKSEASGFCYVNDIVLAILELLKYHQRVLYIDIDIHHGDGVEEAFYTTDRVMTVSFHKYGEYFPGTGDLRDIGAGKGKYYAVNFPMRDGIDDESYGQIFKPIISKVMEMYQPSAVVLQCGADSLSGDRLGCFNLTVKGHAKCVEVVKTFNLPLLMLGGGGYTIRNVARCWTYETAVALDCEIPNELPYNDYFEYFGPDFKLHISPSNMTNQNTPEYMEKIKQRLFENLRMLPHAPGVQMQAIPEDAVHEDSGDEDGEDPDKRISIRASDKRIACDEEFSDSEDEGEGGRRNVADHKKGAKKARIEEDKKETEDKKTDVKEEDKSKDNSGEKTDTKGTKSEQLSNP

Histone deacetylase 3 = Histone deacetylase 3 (Homo sapiens, UniProt O15379); test: Inhibition of HDAC3 (unknown origin)
Histone deacetylase 3, sequence (O15379 whole entry): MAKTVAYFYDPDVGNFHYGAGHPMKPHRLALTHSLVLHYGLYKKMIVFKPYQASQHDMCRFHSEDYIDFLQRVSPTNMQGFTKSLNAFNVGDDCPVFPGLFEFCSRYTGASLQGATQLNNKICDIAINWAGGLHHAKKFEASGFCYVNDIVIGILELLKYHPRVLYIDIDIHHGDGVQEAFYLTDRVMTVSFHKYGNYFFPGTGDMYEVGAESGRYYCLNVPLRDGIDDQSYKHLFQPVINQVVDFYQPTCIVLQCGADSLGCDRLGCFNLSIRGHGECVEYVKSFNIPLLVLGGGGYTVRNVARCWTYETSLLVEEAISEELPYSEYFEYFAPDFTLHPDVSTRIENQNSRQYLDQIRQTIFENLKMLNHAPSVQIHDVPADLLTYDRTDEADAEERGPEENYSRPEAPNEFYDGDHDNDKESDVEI

Histone deacetylase 8 = target: T1, Histone deacetylase 8 (Homo sapiens, UniProt Q9BY41); test: Inhibition of HDAC8 (unknown origin)
T1 sequence (Q9BY41 whole entry): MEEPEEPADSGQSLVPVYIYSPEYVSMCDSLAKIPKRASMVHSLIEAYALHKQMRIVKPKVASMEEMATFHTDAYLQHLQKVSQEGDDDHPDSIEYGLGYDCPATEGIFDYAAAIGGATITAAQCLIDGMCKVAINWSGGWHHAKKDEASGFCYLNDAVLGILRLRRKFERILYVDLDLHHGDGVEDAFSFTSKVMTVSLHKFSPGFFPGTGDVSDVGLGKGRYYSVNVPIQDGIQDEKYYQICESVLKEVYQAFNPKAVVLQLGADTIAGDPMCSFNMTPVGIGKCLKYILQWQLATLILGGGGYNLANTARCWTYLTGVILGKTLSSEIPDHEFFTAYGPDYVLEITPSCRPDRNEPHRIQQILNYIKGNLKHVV

Histone deacetylase 11 = target: T2, Histone deacetylase 11 (Homo sapiens, UniProt Q96DB2); test: Inhibition of HDAC11 (unknown origin)
T2 sequence (Q96DB2 whole entry): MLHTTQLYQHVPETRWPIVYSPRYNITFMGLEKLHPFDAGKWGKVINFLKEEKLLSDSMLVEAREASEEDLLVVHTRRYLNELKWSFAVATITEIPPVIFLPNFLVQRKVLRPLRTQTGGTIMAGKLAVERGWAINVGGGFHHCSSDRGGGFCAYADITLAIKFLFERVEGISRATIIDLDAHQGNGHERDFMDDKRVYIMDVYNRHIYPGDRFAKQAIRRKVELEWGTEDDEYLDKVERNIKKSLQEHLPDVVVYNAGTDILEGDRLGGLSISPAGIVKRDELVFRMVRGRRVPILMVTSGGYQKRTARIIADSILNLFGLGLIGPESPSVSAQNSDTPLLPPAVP

Histone deacetylase = test: Inhibition of HDAC (unknown origin); format: protein assay, Homo sapiens

Row | SMILES | IC50 (Tubulin) | IC50 (U-937) [nM] | IC50 (A549) [nM] | IC50 (MGC-803) [nM] | IC50 (HepG2) [nM] | IC50 (MCF7) [nM] | IC50 (HeLa) [nM] | IC50 (Histone deacetylase 1) | IC50 (Histone deacetylase 2) | IC50 (Histone deacetylase 3) | IC50 (Histone deacetylase 8) | IC50 (Histone deacetylase 11) | IC50 (Histone deacetylase) [nM] | IC50 (Tubulin; read-out: IC50) [nM]
1 | O=C(CCCCCCC(=O)Nc1ccccc1)NO [VORINOSTAT] | Not Active | – | – | – | – | – | – | – | – | – | – | – | – | –
2 | COc1ccc(/C=C\c2cc(OC)c(OC)c(OC)c2)cc1Oc1ccc(C(=O)NO)cc1 | – | 3500 | 1470 | 927 | 4550 | 1470 | 1470 | – | – | – | – | – | – | –
3 | COc1ccc(C(=O)c2cc(OC)c(OC)c(OC)c2)cc1Oc1ccc(C(=O)Nc2ccccc2N)cc1 | – | > 5000 | > 5000 | > 5000 | > 5000 | > 5000 | > 5000 | – | – | – | – | – | – | –
4 | COc1ccc(/C=C\c2cc(OC)c(OC)c(OC)c2)cc1OCc1ccc(C(=O)Nc2ccccc2N)cc1 | – | 1790 | 2210 | 604 | 3410 | 1470 | 2210 | – | – | – | – | – | – | –
5 | COc1ccc(/C=C\c2cc(OC)c(OC)c(OC)c2)cc1Oc1ccc(C(=O)NO)cn1 | – | 3320 | 2440 | 1090 | > 5000 | 485 | 2440 | – | – | – | – | – | – | –
6 | COc1ccc(/C=C\c2cc(OC)c(OC)c(OC)c2)cc1Oc1ccc(C(C)(C)C(=O)NO)cc1 | – | > 5000 | > 5000 | > 5000 | > 5000 | > 5000 | > 5000 | – | – | – | – | – | – | –
7 | COc1ccc(C(=O)c2cc(OC)c(OC)c(OC)c2)cc1OCCCC(=O)NO | – | > 5000 | > 5000 | > 5000 | > 5000 | > 5000 | > 5000 | – | – | – | – | – | – | –
8 | O=C(NCC1(c2nc(-c3ccccc3)cs2)CCOCC1)c1cccc(-c2noc(C(F)(F)F)n2)c1 | – | – | – | – | – | – | – | Not Active | Not Active | Not Active | Not Active | Not Active | – | –
9 | COc1ccc(/C=C\c2cc(OC)c(OC)c(OC)c2)cc1OCCCCC(=O)NO | – | 3320 | 4810 | 1130 | 3560 | 2810 | 189 | – | – | – | – | – | – | –
10 | COc1ccc(C(=O)c2cc(OC)c(OC)c(OC)c2)cc1OCc1ccc(C(=O)Nc2ccccc2N)cc1 | – | > 5000 | > 5000 | > 5000 | > 5000 | > 5000 | > 5000 | – | – | – | – | – | – | –
11 | COc1ccc(/C=C\c2cc(OC)c(OC)c(OC)c2)cc1OCC(=O)NO | – | > 5000 | 285 | 13 | 122 | 419 | 64 | – | – | – | – | – | – | –
12 | COc1ccc(/C=C\c2cc(OC)c(OC)c(OC)c2)cc1OCCCC(=O)Nc1ccccc1N | – | 5780 | 3240 | > 5000 | > 5000 | 4280 | 740 | – | – | – | – | – | – | –
13 | COc1ccc(/C=C\c2cc(OC)c(OC)c(OC)c2)cc1/C=C/C(=O)NO | – | 805 | 254 | 208 | 252 | 158 | 257 | – | – | – | – | – | – | –
14 | COc1ccc(/C=C\c2cc(OC)c(OC)c(OC)c2)c(/C=C/C(=O)NO)c1 | – | 995 | 2230 | 146 | 164 | 641 | 61 | – | – | – | – | – | – | –
15 | COc1ccc(C(=O)c2cc(OC)c(OC)c(OC)c2)cc1OCCCCC(=O)Nc1ccccc1N | – | > 5000 | > 5000 | > 5000 | > 5000 | > 5000 | > 5000 | – | – | – | – | – | – | –
16 | COc1ccc(/C=C\c2cc(OC)c(OC)c(OC)c2)cc1Oc1ccc(C(=O)Nc2ccccc2N)cc1 | – | 4330 | > 5000 | 1360 | 4700 | 1570 | > 5000 | – | – | – | – | – | – | –
17 | COc1ccc(C(=O)c2cc(OC)c(OC)c(OC)c2)cc1Oc1ccc(C(=O)Nc2ccccc2N)cn1 | – | > 5000 | > 5000 | > 5000 | > 5000 | > 5000 | > 5000 | – | – | – | – | – | – | –

Row | SMILES | IC50 (Tubulin) | IC50 (U-937) [nM] | IC50 (A549) [nM] | IC50 (MGC-803) [nM] | IC50 (HepG2) [nM] | IC50 (MCF7) [nM] | IC50 (HeLa) [nM] | IC50 (Histone deacetylase 1) | IC50 (Histone deacetylase 2) | IC50 (Histone deacetylase 3) | IC50 (Histone deacetylase 8) | IC50 (Histone deacetylase 11) | IC50 (Histone deacetylase) [nM] | IC50 (Tubulin; read-out: IC50) [nM]
18 | COc1ccc(/C=C\c2cc(OC)c(OC)c(OC)c2)c(/C=C/C(=O)Nc2ccccc2N)c1 | – | 3750 | 4690 | 301 | 2760 | 2120 | 1960 | – | – | – | – | – | – | –
19 | COc1ccc(C(=O)c2cc(OC)c(OC)c(OC)c2)cc1OCC(=O)NO | – | 1130 | > 5000 | 105 | 521 | 189 | 753 | – | – | – | – | – | 250 | 19600
20 | COc1ccc(/C=C\c2cc(OC)c(OC)c(OC)c2)cc1OCCCC(=O)NO | – | 2540 | 371 | 63 | 81 | 982 | 31 | – | – | – | – | – | 1400 | 5200
21 | COc1ccc(/C=C\c2cc(OC)c(OC)c(OC)c2)cc1Oc1ccc(C(C)(C)C(=O)Nc2ccccc2N)cc1 | – | > 5000 | > 5000 | > 5000 | > 5000 | > 5000 | > 5000 | – | – | – | – | – | – | –
22 | COc1ccc(/C=C\c2cc(OC)c(OC)c(OC)c2)cc1OCC(=O)Nc1ccccc1N | – | > 5000 | > 5000 | > 5000 | > 5000 | > 5000 | > 5000 | – | – | – | – | – | – | –
23 | COc1ccc(C(=O)c2cc(OC)c(OC)c(OC)c2)cc1/C=C/C(=O)Nc1ccccc1N | – | 2250 | 3210 | 1100 | 1160 | 828 | 1180 | – | – | – | – | – | – | –
24 | COc1ccc(C(=O)c2cc(OC)c(OC)c(OC)c2)cc1OCCCC(=O)Nc1ccccc1N | – | > 5000 | > 5000 | > 5000 | > 5000 | > 5000 | > 5000 | – | – | – | – | – | – | –
25 | COc1ccc(C(=O)c2cc(OC)c(OC)c(OC)c2)cc1OCC(=O)Nc1ccccc1N | – | 758 | > 5000 | > 5000 | > 5000 | > 5000 | > 5000 | – | – | – | – | – | – | –
26 | COc1ccc(C(=O)c2cc(OC)c(OC)c(OC)c2)cc1OCc1ccc(C(=O)NO)cc1 | – | > 5000 | > 5000 | > 5000 | > 5000 | > 5000 | > 5000 | – | – | – | – | – | – | –
27 | COc1ccc(C(=O)c2cc(OC)c(OC)c(OC)c2)cc1Oc1ccc(C(=O)NO)cc1 | – | > 5000 | > 5000 | > 5000 | > 5000 | > 5000 | > 5000 | – | – | – | – | – | – | –
28 | COc1ccc(/C=C\c2cc(OC)c(OC)c(OC)c2)cc1Oc1ccc(C(=O)Nc2ccccc2N)cn1 | – | 3220 | > 5000 | 1290 | 4920 | 2610 | > 5000 | – | – | – | – | – | – | –
29 | COc1ccc(/C=C\c2cc(OC)c(OC)c(OC)c2)cc1OCc1ccc(C(=O)NO)cc1 | – | 389 | 440 | 182 | 1330 | 817 | 440 | – | – | – | – | – | 390 | 8600
30 | COc1ccc(C(=O)c2cc(OC)c(OC)c(OC)c2)cc1OCCCCC(=O)NO | – | > 5000 | > 5000 | > 5000 | > 5000 | > 5000 | > 5000 | – | – | – | – | – | – | –
31 | COc1ccc(/C=C\c2cc(OC)c(OC)c(OC)c2)cc1OCCCCC(=O)Nc1ccccc1N | – | > 5000 | > 5000 | > 5000 | > 5000 | > 5000 | > 5000 | – | – | – | – | – | – | –
32 | COc1ccc(C(=O)c2cc(OC)c(OC)c(OC)c2)c(/C=C/C(=O)Nc2ccccc2N)c1 | – | 1680 | 3210 | 1610 | 1560 | 1180 | 1040 | – | – | – | – | – | – | –
33 | COc1ccc(C(=O)c2cc(OC)c(OC)c(OC)c2)cc1Oc1ccc(C(=O)NO)cn1 | – | > 5000 | > 5000 | > 5000 | > 5000 | > 5000 | > 5000 | – | – | – | – | – | – | –

From ChEMBL document CHEMBL4828751, “Discovery of novel tubulin/HDAC dual-targeting inhibitors with strong antitumor and antiangiogenic potency” (Eur J Med Chem, 2021)
